Like-named read-outs stand apart in the source and are kept apart here. Each block holds one molecule with its values, some of them ahead of it. Where a SMILES comes first, the peptide text is derived from it.
How the values were obtained:
XIAP BIR2 = molecular target: T1, XIAP BIR2 (Homo sapiens, UniProt P98170); test: BIR2 TR-FRET assay (displacement of AVPI-derived peptide); type: binding
T1 construct: 6×histidine-tagged BIR2 (amino acids 124–240) or BIR3 (amino acids 241–356) domain of the XIAP protein
T1 sequence (P98170 124-240): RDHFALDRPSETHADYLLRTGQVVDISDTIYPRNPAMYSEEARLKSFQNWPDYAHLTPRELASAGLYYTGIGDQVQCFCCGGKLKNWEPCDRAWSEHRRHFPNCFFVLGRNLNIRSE
Protocol: (§1) Time-resolved fluorescence resonance energy transfer (TR-FRET) signals were measured 1 h later at room temperature. Compound potency was assessed at ten serially diluted concentrations. The percentage of inhibition at each concentration was determined to generate an IC50 value for each compound.

XIAP BIR3 = molecular target: T2, XIAP BIR3 (Homo sapiens, UniProt P98170); test: BIR3 TR-FRET assay (displacement of AVPI-derived peptide); type: binding
T2 construct: 6×histidine-tagged BIR2 (amino acids 124–240) or BIR3 (amino acids 241–356) domain of the XIAP protein
T2 sequence (P98170 241-356): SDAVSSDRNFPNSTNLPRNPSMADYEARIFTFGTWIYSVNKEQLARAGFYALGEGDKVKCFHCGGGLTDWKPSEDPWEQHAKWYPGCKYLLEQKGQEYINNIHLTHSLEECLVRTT
Protocol: as §1

[1] = molecular target: the molecule itself; test: crystal structure; apo BIR2 crystals, sitting drop, 1.7-1.9 M ammonium sulfate, 125 mM bis-tris propane pH 7.0, room temperature; two molecules (A and B)
[2] = molecular target: 6×histidine-tagged BIR2 (amino acids 124–240) domain of the XIAP protein (UniProt P98170); test: AlphaScreen or HTRF; TR-FRET competition: 10 nM 6xHis BIR2 or BIR3 domain with 20 nM …-(epsilon-biotin)-OH; europium streptavidin (1.5 nM) and allophycocyanin anti-histidine antibody (15 nM); 50 mM Tris-HCl pH 7.5, 100 mM NaCl, 1 mM DTT, 0.1 mg/ml BSA; 45 min at 310 K, read 1 h later at room temperature; ten concentrations; Ki from IC50 by Cheng-Prusoff
6×histidine-tagged BIR2 (amino acids 124–240) domain of the XIAP protein, sequence (P98170 124-240): as the sequence (P98170 124-240) above

[3] = FRET-based displacement of AVPI-derived peptide from 6xHis BIR2 (124-240), Ki from IC50 by Cheng-Prusoff, read-out: BIR2 K i
[4] = FRET-based displacement of AVPI-derived peptide from 6xHis BIR3 (241-356), Ki from IC50 by Cheng-Prusoff, read-out: BIR3 K i

Ki (XIAP BIR2; [3]): 1700 nM
Ki (XIAP BIR3; [4]): > 47 µM
activity against BIR3 (in words) (XIAP BIR3; TR-FRET assay): inactive
Molecule: C[C@H](N)C(=O)N[C@H](C(=O)N[C@@H](C)C(=O)N[C@@H](C)C(=O)O)[C@@H](C)O [ATAA] (H-ATAA-OH)

Ki (XIAP BIR2; [3]): 2170 nM
Ki (XIAP BIR3; [4]): 32.3 µM
Molecule: CC(C)[C@H](NC(=O)[C@H](C)NC(=O)[C@@H](NC(=O)[C@H](C)N)[C@@H](C)O)C(=O)O [ATAV] (H-ATAV-OH)

Ki (XIAP BIR2; [3]): 1870 nM
Ki (XIAP BIR3; [4]): 26.1 µM
Molecule: CC(C)[C@H](NC(=O)[C@H](C)NC(=O)[C@@H](NC(=O)[C@H](C)N)C(C)C)C(=O)O [AVAV] (H-AVAV-OH)

Ki (XIAP BIR2; [3]): 2540 nM
Molecule: CC(C)[C@H](NC(=O)[C@@H](NC(=O)[C@@H](NC(=O)[C@H](C)N)C(C)C)C(C)C)C(=O)O [AVVV] (H-AVVV-OH)

Ki (XIAP BIR2; [3]): 34000 nM
Ki (XIAP BIR3; [4]): 12.5 µM
Molecule: CC[C@H](C)[C@H](NC(=O)[C@@H]1CCCN1C(=O)[C@H](CCSC)NC(=O)[C@@H](N)CO)C(=O)O [SMPI] (H-SMPI-OH)

Ki (XIAP BIR2; [3]): 12300 nM
Ki (XIAP BIR3; [4]): > 47 µM
Molecule: CSCC[C@H](NC(=O)[C@@H](N)CO)C(=O)N[C@@H](CCCNC(=N)N)C(=O)N[C@H](C(=O)O)C(C)C [SMRV] (H-SMRV-OH)

Ki [2]: 12.2 µM
B2: SMRV (peptide)
peptide: SMRV

Continued, molecule first:

Molecule: CC[C@H](C)[C@H](NC(=O)[C@H](C)N)C(=O)N[C@@H](C)C(=O)N[C@H](C(=O)O)C(C)C [AIAV] (H-AIAV-OH)
Ki (XIAP BIR2): 1870 nM
Ki (XIAP BIR3): 28.2 µM

Molecule: CC[C@H](C)[C@H](NC(=O)[C@@H]1CCCN1C(=O)[C@@H](NC(=O)[C@H](C)N)[C@@H](C)CC)C(=O)O [AIPI] (H-AIPI-OH)
Ki (XIAP BIR2; [3]): 3110 nM
Ki (XIAP BIR3; [4]): 0.08 µM

Molecule: CC[C@H](C)[C@H](NC(=O)[C@H](CCCNC(=N)N)NC(=O)[C@H](CCSC)NC(=O)[C@H](C)N)C(=O)O [AMRI] (H-AMRI-OH)
Ki (XIAP BIR2; [3]): 3520 nM
Ki (XIAP BIR3; [4]): 5.2 µM

Molecule: CSCC[C@H](NC(=O)[C@H](C)N)C(=O)N[C@@H](CCCNC(=N)N)C(=O)N[C@H](C(=O)O)C(C)C [AMRV] (H-AMRV-OH)
Ki (XIAP BIR2; [3]): 2410 nM
Ki (XIAP BIR3; [4]): 32.9 µM

Molecule: C[C@H](N)C(=O)N[C@@H](CCCNC(=N)N)C(=O)N1CCC[C@H]1C(=O)N[C@@H](CCCNC(=N)N)C(=O)O [ARPR] (H-ARPR-OH)
Ki (XIAP BIR2; [3]): > 53000 nM

B1: XIAP BIR2(152–236;C202A,C213G) (domain or fragment, human)
chain: GTIYPRNPAMYSEEARLKSFQNWPDYAHLTPRELASAGLYYTGIGDQVQCFACGGKLKNWEPGDRAWSEHRRHFPNCFFVLGRNLN
notes: printed as hBIR2; Two molecules (A and B) in the crystal; also called hBIR2(152–236;C202A,C213G); BIR2 domain of XIAP; source: E. coli Rosetta2(DE3)pLysS, purified (Ni-NTA, TEV cleavage, Superdex 75); not shown: His6, N-terminal, cleaved
binding result [1]: binds

From publication PMC3760131 (Acta Crystallographica Section D: Biological Crystallography, 2013)
